The values below come from patent US5023244A, “Anti-dementia agents” (Hoechst Japan Limited, priority 1986, dated 1991).

Data set [1] can be described thus: Passive avoidance task, memory retention test after cycloheximide-induced amnesia (retrieval process). The note with it: cycloheximide 120 mg/kg i.p., test 24 h after training. Type of data set: in vivo, ICR male mice. The text has this: The passive avoidance task and the induction of amnesia by cycloheximide are experimental methods usually employed (Naoki Yamazaki et al.: Jap. J. Psychopharmacol., 3, 127 (1983)). The detailed method is described below. The apparatus used for the experiment was a plastic box 24 cm in height, 20 cm in width and 23 cm in length with a floor of iron grids at the corner of which was placed a platform 8 cm in length, 8 cm in width and 1.5 cm in height. When a mouse placed in the box was subjected to electric stimulus with a current of 0.3 mA for a period of approximately 3 seconds, the mouse escaped onto the platform. After subsequent non-stimulus period of 8 seconds, the mouse was subjected to the electric stimulus for an additional period of approximately 5 seconds. By this method, the mouse acquired memory of aversion that the electric stimulus would be delivered whenever the animal got off the platform, thus the passive avoidance task was established. The learning was judged to be established if the mouse placed on the platform under non-stimulus condition immediately after the training remained on it for 30 seconds or longer.
The test to observe whether or not a mouse retained memory of aversion was performed 24 hours after the training and percent memory retention was calculated according to the following equation: [formula]
In order to induce deficits of memory, the animal was intraperitoneally administered 15 min prior to the training with a physiological saline solution of cycloheximide at a dose of 120 mg/kg., and then subjected to the electric stimulus for training.
A memory retention test was performed 24 hours after training. An intraperitoneal administration was done 75 min. prior to the test respectively for L-N^6 -phenylisopropyladenosine (Compound A) and N^6 -cyclohexyladenosine (Compound C), 60 min. prior to the test respectively for 2-chloroadenosine(Compound B) and adenosine-5'-(N-cyclopropyl)carboxamide (Compound E) and 45 min. prior to the test for adenosine-5'-(N-ethyl)carboxamide (Compound D).

A short description of data set [2]: Acute toxicity (LD50) in mice by intraperitoneal administration. Particulars: mouse, in vivo, ip.
[3] abbreviates: 100 μg/kg i.p., 75 min prior to test.

As for `Nc1ncnc2c1ncn2[C@@H]1O[C@H](C(=O)NC2CC2)[C@@H](O)[C@H]1O` [Compound E, adenosine-5'-(N-cyclopropyl)carboxamide], the Percent memory retention was 25.0% in data set [1] (1 μg/kg i.p., 60 min prior to test); 40.0% in data set [1] (3 μg/kg i.p., 60 min prior to test); 62.1% in data set [1] (10 μg/kg i.p., 60 min prior to test); 66.7% in data set [1] (30 μg/kg i.p., 60 min prior to test).

With `Nc1nc(Cl)nc2c1ncn2[C@@H]1O[C@H](CO)[C@@H](O)[C@H]1O` [Compound B, 2-chloroadenosine], the Percent memory retention was found to be 35.0% in data set [1] (500 μg/kg i.p., 60 min prior to test) and 52.4% in data set [1] (1000 μg/kg i.p., 60 min prior to test). For the same molecule, in data set [2], the LD50 is 45 mg/kg.

As for `C[C@H](Cc1ccccc1)Nc1ncnc2c1ncn2[C@@H]1O[C@H](CO)[C@@H](O)[C@H]1O` [Compound A, L-N^6 -phenylisopropyladenosine], the Percent memory retention in data set [1] (50 μg/kg i.p., 75 min prior to test) came to 36.8%; in data set [1] (setting [3]), 55.0%. Besides, the LD50 in data set [2] was 31 mg/kg.

As for `CCNC(=O)[C@H]1O[C@@H](n2cnc3c(N)ncnc32)[C@H](O)[C@@H]1O` [Compound D, adenosine-5'-(N-ethyl)carboxamide], the Percent memory retention in data set [1] (3 μg/kg i.p., 45 min prior to test) was 39.3%; in data set [1] (7 μg/kg i.p., 45 min prior to test), 42.3%; in data set [1] (10 μg/kg i.p., 45 min prior to test) it was 51.4%.

For `OC[C@H]1O[C@@H](n2cnc3c(NC4CCCCC4)ncnc32)[C@H](O)[C@@H]1O` [Compound C, N^6 -cyclohexyladenosine], the Percent memory retention in data set [1] (10 μg/kg i.p., 75 min prior to test) is 14.8%; in data set [1] (setting [3]), 20.8%; in data set [1] (300 μg/kg i.p., 75 min prior to test) it was 66.7%.

In general, LD50 refers to the dose at which mortality reaches 50%. Higher therefore signals a less toxic substance.
